Source: patent US4738929A, “Purified culture of streptomyces galanosa” (Warner-Lambert Company, priority 1986, dated 1988)
Values after ≈ are worked out from the molar mass of the structure shown. Counter-ions that a name gives are not always drawn.

Columns and labels:
[1] = test system: P388 leukemia cell line; assay: In vivo antineoplastic activity against transplanted P388 leukemia in mice; conditions: Days 1-9
Procedure: The in vivo antineoplastic activity of representative compounds of the present invention against the transplanted P388 leukemia cell line in mice was determined in accordance with the protocol given in Geran et al, cited above. The mice were infected intraperitoneally on Day 0 and then administered the indicated doses of the test compounds on Days 1-9.

[2] = test system: Bacillus megaterium; assay: Microtiter dilution MIC, Bacillus megaterium; type: cell-based; conditions: Priestia megaterium; Mueller-Hinton broth, 37° C., 16-24 hours; read-out: Minimal Inhibitory Concentration
Procedure: (§1) The compounds of the present invention and their pharmaceutically acceptable salts are useful as antimicrobial agents. The antimicrobial activity of the representative examples of compounds in accordance with the present invention against five species of gram-negative bacteria, seven species of gram-positive bacteria, four species of yeast, and two species of fungi were determined using the microtiter dilution technique. This method is described by T. B. Conrath, "Handbook of Microtiter Procedures," Dynatech Corp., Cambridge, Mass., USA (1972); and T. L. Gavan et al, "Microdilution Test Procedures," in Manual of Clinical Microbiology, E. H. Lennette, Ed., American Soc. for Microbiol., Washington, D.C., U.S.A. (1980).
(§2) Each agent is suspended in a nonaqueous solvent for several minutes to sterilize the compound or, if the compound is completely soluble in water, the aqueous solution is sterilized by passage through a 0.2-0.45 micrometer membrane filter.
(§3) Each well of a sterile 96-well microdilution tray is filled under aseptic conditions with 0.1 ml of Mueller-Hinton broth (for antibacterial tests), or yeast extract-peptone-dextrose or buffered supplemented yeast nitrogen base (for tests with yeasts or fungi).
(§4) […] of the test compound solution is added to each of the eight wells in the first row of the tray. A microdilutor apparatus is used to simultaneously mix the contents of these wells and to transfer aliquots to each succeeding row of cells to obtain a range of serially diluted solutions. The last row of wells is untreated and serves as a control.
(§5) Each well containing broth and test compound is inoculated with about ten microliters of inoculum of the test microorganism. One well in the last row of wells (which is free of test compound) is not inoculated and is used as a sterility control The trays are sealed and incubated at 37° C. for 16-24 hours (for bacteria) or at 28° C. for 36-48 hours (yeasts or fungi). During incubation, the inoculated medium is shaken at 100-140 rpm to increase contact between the microorganism cells and test compounds.
(§6) After the incubation period, each plate is evaluated by determining the lowest concentration of test compound required to inhibit the growth of the microorganism and recorded as a minimal inhibitory concentration (MIC).

[3] = test system: Bacillus cereus; assay: Microtiter dilution MIC, Bacillus cereus; type: cell-based; conditions: Mueller-Hinton broth, 37° C., 16-24 hours, read-out: Minimal Inhibitory Concentration
Procedure: as §1, §2, §3, §4, §5, §6

[4] = test system: Saccharomyces cerevisiae; assay: Microtiter dilution MIC, Saccharomyces cerevisiae; type: cell-based; conditions: yeasts or fungi, 28° C., 36-48 hours, read-out: Minimal Inhibitory Concentration
Procedure: as §1, §2, §3, §4, §5, §6

[5] = test system: Streptococcus pneumoniae; assay: Microtiter dilution MIC, Streptococcus pneumoniae; type: cell-based; conditions: Mueller-Hinton broth, 37° C., 16-24 hours, read-out: Minimal Inhibitory Concentration
Procedure: as §1, §2, §3, §4, §5, §6

[6] = test system: Pseudomonas aeruginosa; assay: Microtiter dilution MIC, Pseudomonas aeruginosa; type: cell-based; conditions: Mueller-Hinton broth, 37° C., 16-24 hours, read-out: Minimal Inhibitory Concentration
Procedure: as §1, §2, §3, §4, §5, §6

[7] = test system: Rhizopus japonicus; assay: Microtiter dilution MIC, Rhizopus japonicus; type: cell-based; conditions: yeasts or fungi, 28° C., 36-48 hours, read-out: Minimal Inhibitory Concentration
Procedure: as §1, §2, §3, §4, §5, §6

[8] = test system: Schizosaccharomyces pombe; assay: Microtiter dilution MIC, Schizosaccharomyces pombe; type: cell-based; conditions: yeasts or fungi, 28° C., 36-48 hours, read-out: Minimal Inhibitory Concentration
Procedure: as §1, §2, §3, §4, §5, §6

[9] = test system: Micrococcus luteus; assay: Microtiter dilution MIC, Micrococcus luteus; type: cell-based; conditions: Mueller-Hinton broth, 37° C., 16-24 hours, read-out: Minimal Inhibitory Concentration
Procedure: as §1, §2, §3, §4, §5, §6

[10] = test system: L1210 murine leukemia cell line; assay: Cytotoxic activity against L1210 murine leukemia in vitro; type: cell-based; conditions: Mus musculus, 50% inhibition of growth, duplicate tests
Procedure: The antineoplastic activities of representative compounds of the present invention against the L1210 murine leukemia cell line in vitro were determined using the methods detailed by R. I. Geran et al, "Protocols for Screening Chemical Agents and Natural Products Against Animal Tumors and Other Biological Systems," 3rd Edition, Cancer Chemotherapy Reports, Part 3, Vol. 3, pages 1-87 (1972) which is incorporated herein by reference.
The IC50 values are the concentration of compound required to produce 50% inhibition of growth of the cell line.

[11] = test system: Rhodotorula aurantiaca; assay: Microtiter dilution MIC, Rhodotorula aurantiaca; type: cell-based; conditions: Buckleyzyma aurantiaca; yeasts or fungi, 28° C., 36-48 hours; read-out: Minimal Inhibitory Concentration
Procedure: as §1, §2, §3, §4, §5, §6

[12] = test system: Alcaligenes viscolactis; assay: Microtiter dilution MIC, Alcaligenes viscolactis; type: cell-based; conditions: Mueller-Hinton broth, 37° C., 16-24 hours, read-out: Minimal Inhibitory Concentration
Procedure: as §1, §2, §3, §4, §5, §6

[13] = test system: Streptococcus faecalis; assay: Microtiter dilution MIC, Streptococcus faecalis; type: cell-based; conditions: Enterococcus faecalis; Mueller-Hinton broth, 37° C., 16-24 hours; read-out: Minimal Inhibitory Concentration
Procedure: as §1, §2, §3, §4, §5, §6

[14] = test system: Staphylococcus aureus; assay: Microtiter dilution MIC, Staphylococcus aureus; type: cell-based; conditions: Mueller-Hinton broth, 37° C., 16-24 hours, read-out: Minimal Inhibitory Concentration
Procedure: as §1, §2, §3, §4, §5, §6

[15] = test system: Torulopsis albida; assay: Microtiter dilution MIC, Torulopsis albida; type: cell-based; conditions: Naganishia albida; yeasts or fungi, 28° C., 36-48 hours; read-out: Minimal Inhibitory Concentration
Procedure: as §1, §2, §3, §4, §5, §6

[16] = test system: Salmonella typhimurium; assay: Microtiter dilution MIC, Salmonella typhimurium; type: cell-based; conditions: Salmonella enterica, Mueller-Hinton broth, 37° C., 16-24 hours, read-out: Minimal Inhibitory Concentration
Procedure: as §1, §2, §3, §4, §5, §6

[17] = test system: Mucor paraciticus; assay: Microtiter dilution MIC, Mucor paraciticus; type: cell-based; conditions: yeasts or fungi, 28° C., 36-48 hours, read-out: Minimal Inhibitory Concentration
Procedure: as §1, §2, §3, §4, §5, §6

[18] = test system: Streptococcus pyogenes; assay: Microtiter dilution MIC, Streptococcus pyogenes; type: cell-based; conditions: Mueller-Hinton broth, 37° C., 16-24 hours, read-out: Minimal Inhibitory Concentration
Procedure: as §1, §2, §3, §4, §5, §6

[19] = test system: Escherichia coli (PD-04863); assay: Microtiter dilution MIC, Escherichia coli (PD-04863); type: cell-based; conditions: Mueller-Hinton broth, 37° C., 16-24 hours, read-out: Minimal Inhibitory Concentration
Procedure: as §1, §2, §3, §4, §5, §6

[20] = test system: Branhamella catarrhalis; assay: Microtiter dilution MIC, Branhamella catarrhalis; type: cell-based; conditions: Moraxella catarrhalis; Mueller-Hinton broth, 37° C., 16-24 hours; read-out: Minimal Inhibitory Concentration
Procedure: as §1, §2, §3, §4, §5, §6

SMILES: Cc1c(O)c(C=O)c2nc3c(O)ccc(C(=O)NCCN(C)C)c3nc2c1O [Example 9, N-[2-(dimethylamino)ethyl]-6-formyl-4,7,9-trihydroxy-8-methyl-1-phenazinecarboxamide, methanesulfonate salt]
- % T/C ([1]; 5 mg/kg/injection): 139%
- % T/C ([1]; 10 mg/kg/injection): 143%
- % T/C ([1]; 20 mg/kg/injection): 144%
- % T/C ([1]; 40 mg/kg/injection): 170%
- % T/C ([1]; 80 mg/kg/injection): 219%

SMILES: Cc1c(O)c(C=O)c2nc3c(O)ccc(C(=O)O)c3nc2c1O [Example 11, 6-formyl-4,7,9-trihydroxy-8-methyl-1-phenazinecarboxylic acid]
- MIC [2]: 111 µg/mL (≈ 353 µM)
- MIC [3]: 37 µg/mL (≈ 118 µM)
- MIC [4]: 111 µg/mL (≈ 353 µM)
- MIC [5]: 111 µg/mL (≈ 353 µM)
- MIC [6]: 1000 µg/mL (≈ 3180 µM)
- MIC [7]: 37 µg/mL (≈ 118 µM)
- MIC [8]: 37 µg/mL (≈ 118 µM)
- MIC [9]: 111 µg/mL (≈ 353 µM)
- IC50 [10]: 3.47 µg/mL (≈ 11 µM)
- MIC [11]: 12.3 µg/mL (≈ 39.1 µM)
- MIC [12]: 12.3 µg/mL (≈ 39.1 µM)
- MIC [13]: 111 µg/mL (≈ 353 µM)
- MIC [14]: 37 µg/mL (≈ 118 µM)
- MIC [15]: 111 µg/mL (≈ 353 µM)
- MIC [16]: 111 µg/mL (≈ 353 µM)
- MIC [17]: 37 µg/mL (≈ 118 µM)
- MIC [18]: 111 µg/mL (≈ 353 µM)
- MIC [19]: 111 µg/mL (≈ 353 µM)
- MIC [20]: 12.3 µg/mL (≈ 39.1 µM)

SMILES: CN(C)CCNC(=O)c1ccc(O)c2nc3c(C=O)c(O)cc(O)c3nc12 [Example 14, N-[2-(dimethylamino)ethyl]-6-formyl-4,7,9-trihydroxy-1-phenazinecarboxamide]
- MIC [2]: 111 µg/mL (≈ 300 µM)
- MIC [3]: 37 µg/mL (≈ 99.9 µM)
- MIC [4]: > 1000 µg/mL
- MIC [5]: 111 µg/mL (≈ 300 µM)
- MIC [6]: 1000 µg/mL (≈ 2700 µM)
- MIC [7]: 333 µg/mL (≈ 899 µM)
- MIC [8]: 111 µg/mL (≈ 300 µM)
- MIC [9]: 111 µg/mL (≈ 300 µM)
- MIC [11]: 37 µg/mL (≈ 99.9 µM)
- MIC [12]: 12.3 µg/mL (≈ 33.2 µM)
- MIC [13]: 111 µg/mL (≈ 300 µM)
- MIC [14]: 37 µg/mL (≈ 99.9 µM)
- MIC [15]: 333 µg/mL (≈ 899 µM)
- MIC [16]: 111 µg/mL (≈ 300 µM)
- MIC [17]: 333 µg/mL (≈ 899 µM)
- MIC [18]: 111 µg/mL (≈ 300 µM)
- MIC [19]: 111 µg/mL (≈ 300 µM)
- MIC [20]: 12.3 µg/mL (≈ 33.2 µM)

SMILES: CCN(CC)CCNC(=O)c1ccc(O)c2nc3c(C=O)c(O)c(C)c(O)c3nc12 [Example 16, N-[2-(diethylamino)ethyl]-6-formyl-4,7,9-trihydroxy-8-methyl-1-phenazinecarboxamide]
- MIC [2]: 37 µg/mL (≈ 89.7 µM)
- MIC [3]: 12.3 µg/mL (≈ 29.8 µM)
- MIC [4]: 111 µg/mL (≈ 269 µM)
- MIC [5]: 37 µg/mL (≈ 89.7 µM)
- MIC [6]: 333 µg/mL (≈ 807 µM)
- MIC [7]: 111 µg/mL (≈ 269 µM)
- MIC [8]: 37 µg/mL (≈ 89.7 µM)
- MIC [9]: 12.3 µg/mL (≈ 29.8 µM)
- % T/C ([1]; 19 mg/kg/injection): 136%
- % T/C ([1]; 37.5 mg/kg/injection): 147%
- % T/C ([1]; 75 mg/kg/injection): 166%
- % T/C ([1]; 150 mg/kg/injection): 213%
- IC50 [10]: 0.33 µg/mL (≈ 0.8 µM)
- MIC [11]: 37 µg/mL (≈ 89.7 µM)
- MIC [12]: 12.3 µg/mL (≈ 29.8 µM)
- MIC [13]: 111 µg/mL (≈ 269 µM)
- MIC [14]: 37 µg/mL (≈ 89.7 µM)
- MIC [15]: 37 µg/mL (≈ 89.7 µM)
- MIC [16]: 37 µg/mL (≈ 89.7 µM)
- MIC [17]: 111 µg/mL (≈ 269 µM)
- MIC [18]: 37 µg/mL (≈ 89.7 µM)
- MIC [19]: 37 µg/mL (≈ 89.7 µM)
- MIC [20]: 12.3 µg/mL (≈ 29.8 µM)
